Drawing on ChEMBL document CHEMBL1159167, “Synthesis and biological activity of 5-[(2,5-dihydroxybenzyl)amino]salicylic acid analogs as inhibitors of EGF receptor-associated protein tyrosine kinase” (Bioorg Med Chem Lett, 1997), this text covers IC50 for six compounds.

As usually defined, the IC50 is the point on the concentration scale where inhibition reaches its midpoint. A high value points to lower potency.

Epidermal growth factor receptor, sequence (P00533 whole entry): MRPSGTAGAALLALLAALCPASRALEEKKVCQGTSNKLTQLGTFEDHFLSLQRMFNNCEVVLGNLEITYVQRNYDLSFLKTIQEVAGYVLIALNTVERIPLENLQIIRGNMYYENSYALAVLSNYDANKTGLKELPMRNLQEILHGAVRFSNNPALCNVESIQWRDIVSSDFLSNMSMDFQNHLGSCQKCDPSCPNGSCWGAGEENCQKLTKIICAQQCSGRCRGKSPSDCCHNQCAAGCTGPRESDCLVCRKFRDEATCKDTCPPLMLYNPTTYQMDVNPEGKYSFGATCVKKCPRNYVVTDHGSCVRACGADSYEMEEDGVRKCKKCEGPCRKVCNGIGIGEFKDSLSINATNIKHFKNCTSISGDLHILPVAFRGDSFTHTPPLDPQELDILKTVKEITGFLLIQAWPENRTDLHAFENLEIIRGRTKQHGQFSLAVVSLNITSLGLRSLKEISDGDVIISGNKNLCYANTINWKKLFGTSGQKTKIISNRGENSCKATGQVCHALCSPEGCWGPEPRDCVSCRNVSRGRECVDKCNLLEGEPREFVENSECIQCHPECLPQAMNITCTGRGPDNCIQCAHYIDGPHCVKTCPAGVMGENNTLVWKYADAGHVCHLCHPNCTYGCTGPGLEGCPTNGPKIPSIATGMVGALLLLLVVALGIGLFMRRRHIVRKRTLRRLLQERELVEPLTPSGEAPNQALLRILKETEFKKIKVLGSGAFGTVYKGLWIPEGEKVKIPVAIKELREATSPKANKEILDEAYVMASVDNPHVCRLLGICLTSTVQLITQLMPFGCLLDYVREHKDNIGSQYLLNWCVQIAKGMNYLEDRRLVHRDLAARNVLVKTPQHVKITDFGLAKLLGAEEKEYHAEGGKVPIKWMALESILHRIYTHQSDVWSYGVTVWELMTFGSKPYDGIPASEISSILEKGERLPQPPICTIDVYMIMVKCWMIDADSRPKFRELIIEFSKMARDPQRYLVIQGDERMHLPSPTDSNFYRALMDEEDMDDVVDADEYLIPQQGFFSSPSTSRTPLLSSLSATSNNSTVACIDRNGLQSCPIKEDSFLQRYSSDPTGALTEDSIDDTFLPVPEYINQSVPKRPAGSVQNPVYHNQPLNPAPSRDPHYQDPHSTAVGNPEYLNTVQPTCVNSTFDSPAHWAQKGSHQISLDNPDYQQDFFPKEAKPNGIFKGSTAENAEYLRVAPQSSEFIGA

The experiment concerns the target Epidermal growth factor receptor (Homo sapiens, UniProt P00533). Put plainly: Displacement of [gamma-32P]-ATP from Epidermal growth factor receptor in A431 cell-free extracts. Set-up: species or system A-431.
In turn, `CNC(=O)c1cc(NCc2cc(O)ccc2O)ccc1O` returned an IC50 of 9.7 µM.
For `CCCCCCNC(=O)c1cc(NCc2cc(O)ccc2O)ccc1O` the value was 0.9 µM; for `CCCCCCCCCCCCCCNC(=O)c1cc(NCc2cc(O)ccc2O)ccc1O`, 27.2 µM.
For `O=S(=O)(O)c1cc(NCc2cc(O)ccc2O)ccc1O` the value was 10.3 µM; for `O=[N+]([O-])c1cc(NCc2cc(O)ccc2O)ccc1O`, 5.4 µM; for `Oc1ccc(NCc2cc(O)ccc2O)cc1`, 41.9 µM.
